Usually EC50 stands for the concentration giving half of the maximal effect. Low readings indicate greater potency, high ones weaker potency.

The values that follow come from article PMC12377734 (Proceedings of the National Academy of Sciences of the …, 2025).

What all share (format): cell-based
In experiment [1] the target is T1, hPIEZO1 (Homo sapiens, UniProt Q92508). Briefly: single-cell Fura-2 Ca2+ imaging. The following applies: activator; HEK-P1-KO cells, 1 mM Jedi1, pH 7.2, 1.3 mM Ca2+.
Experiment [2] has as its target mPIEZO1 (Mus musculus, UniProt E2JF22). As to the kind of experiment: FLIPR GCaMP6s Ca2+ assay.
The target of experiment [3] is T1, hPIEZO1. As to the kind of experiment: FLIPR GCaMP6s Ca2+ assay.
For experiment [4], the target named is mPIEZO1 (Mus musculus, UniProt E2JF22, L329P). Briefly: FLIPR GCaMP6s Ca2+ assay.
Experiment [5] has as its target hPIEZO1 (Homo sapiens, UniProt Q92508, L322P). Briefly: FLIPR GCaMP6s Ca2+ assay.

Each structure is given as a SMILES string.

T1 sequence (Q92508 whole entry): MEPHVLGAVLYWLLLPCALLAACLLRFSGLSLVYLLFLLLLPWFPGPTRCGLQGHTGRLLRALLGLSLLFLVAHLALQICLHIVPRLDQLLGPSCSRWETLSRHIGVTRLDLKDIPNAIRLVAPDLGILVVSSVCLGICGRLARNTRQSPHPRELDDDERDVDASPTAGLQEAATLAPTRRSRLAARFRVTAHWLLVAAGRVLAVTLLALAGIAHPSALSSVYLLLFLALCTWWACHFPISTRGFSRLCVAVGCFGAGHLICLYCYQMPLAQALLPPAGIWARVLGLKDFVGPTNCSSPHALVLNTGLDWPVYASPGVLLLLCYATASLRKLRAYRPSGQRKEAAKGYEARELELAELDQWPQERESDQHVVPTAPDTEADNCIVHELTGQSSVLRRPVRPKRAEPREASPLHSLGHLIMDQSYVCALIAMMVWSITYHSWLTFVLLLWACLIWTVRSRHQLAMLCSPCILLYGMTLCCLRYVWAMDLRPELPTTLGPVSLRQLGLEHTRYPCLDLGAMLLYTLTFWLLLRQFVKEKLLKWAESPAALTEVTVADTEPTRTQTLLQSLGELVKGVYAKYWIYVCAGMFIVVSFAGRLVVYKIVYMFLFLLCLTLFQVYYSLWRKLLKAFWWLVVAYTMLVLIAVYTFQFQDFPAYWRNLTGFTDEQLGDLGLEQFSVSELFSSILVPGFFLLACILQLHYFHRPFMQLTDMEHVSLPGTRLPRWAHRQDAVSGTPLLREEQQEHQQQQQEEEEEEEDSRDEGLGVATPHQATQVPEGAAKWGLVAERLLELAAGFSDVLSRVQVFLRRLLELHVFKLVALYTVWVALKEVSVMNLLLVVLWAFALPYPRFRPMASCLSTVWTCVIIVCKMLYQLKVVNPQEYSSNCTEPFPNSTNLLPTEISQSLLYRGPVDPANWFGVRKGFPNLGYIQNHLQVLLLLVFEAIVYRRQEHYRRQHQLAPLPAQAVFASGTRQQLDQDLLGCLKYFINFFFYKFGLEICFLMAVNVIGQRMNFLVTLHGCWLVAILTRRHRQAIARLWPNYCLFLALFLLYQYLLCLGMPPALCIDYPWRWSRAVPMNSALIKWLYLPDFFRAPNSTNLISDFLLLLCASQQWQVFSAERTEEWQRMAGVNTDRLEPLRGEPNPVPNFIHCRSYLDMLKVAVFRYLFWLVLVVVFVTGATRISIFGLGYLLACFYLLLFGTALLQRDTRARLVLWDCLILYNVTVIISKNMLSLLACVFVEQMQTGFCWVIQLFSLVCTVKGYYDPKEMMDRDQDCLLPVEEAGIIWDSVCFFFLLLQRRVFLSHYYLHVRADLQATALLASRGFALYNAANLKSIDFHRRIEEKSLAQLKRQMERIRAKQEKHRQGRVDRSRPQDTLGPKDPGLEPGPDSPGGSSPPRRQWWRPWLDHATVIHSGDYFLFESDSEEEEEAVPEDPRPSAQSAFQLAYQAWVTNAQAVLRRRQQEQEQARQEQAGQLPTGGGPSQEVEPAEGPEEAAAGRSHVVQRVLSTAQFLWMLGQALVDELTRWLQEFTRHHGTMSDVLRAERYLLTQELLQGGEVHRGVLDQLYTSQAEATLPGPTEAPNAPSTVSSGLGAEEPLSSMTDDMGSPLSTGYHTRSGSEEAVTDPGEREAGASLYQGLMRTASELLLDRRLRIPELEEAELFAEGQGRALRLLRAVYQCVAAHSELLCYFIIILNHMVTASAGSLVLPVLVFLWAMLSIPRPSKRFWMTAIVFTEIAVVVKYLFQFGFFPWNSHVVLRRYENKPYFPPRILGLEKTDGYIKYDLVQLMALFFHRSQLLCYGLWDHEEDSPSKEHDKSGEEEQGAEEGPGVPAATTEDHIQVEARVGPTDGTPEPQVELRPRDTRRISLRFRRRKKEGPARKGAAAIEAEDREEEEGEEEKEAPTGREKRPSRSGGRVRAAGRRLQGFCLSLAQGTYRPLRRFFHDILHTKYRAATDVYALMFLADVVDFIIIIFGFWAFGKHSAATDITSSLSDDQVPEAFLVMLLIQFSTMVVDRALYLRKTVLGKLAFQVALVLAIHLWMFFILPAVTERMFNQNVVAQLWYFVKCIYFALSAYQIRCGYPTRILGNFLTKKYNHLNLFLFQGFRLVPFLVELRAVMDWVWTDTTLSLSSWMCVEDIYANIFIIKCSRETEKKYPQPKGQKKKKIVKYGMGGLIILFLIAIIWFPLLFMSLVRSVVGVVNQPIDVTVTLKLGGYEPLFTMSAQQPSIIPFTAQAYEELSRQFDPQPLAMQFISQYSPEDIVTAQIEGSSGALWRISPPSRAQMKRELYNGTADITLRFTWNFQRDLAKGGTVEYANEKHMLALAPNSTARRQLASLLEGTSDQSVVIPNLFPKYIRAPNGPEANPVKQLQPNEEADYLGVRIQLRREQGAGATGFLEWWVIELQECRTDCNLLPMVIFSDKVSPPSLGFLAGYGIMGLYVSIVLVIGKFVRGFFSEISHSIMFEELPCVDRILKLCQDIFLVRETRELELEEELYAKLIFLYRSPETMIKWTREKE
mPIEZO1 (Mus musculus, UniProt E2JF22), sequence (E2JF22 whole entry): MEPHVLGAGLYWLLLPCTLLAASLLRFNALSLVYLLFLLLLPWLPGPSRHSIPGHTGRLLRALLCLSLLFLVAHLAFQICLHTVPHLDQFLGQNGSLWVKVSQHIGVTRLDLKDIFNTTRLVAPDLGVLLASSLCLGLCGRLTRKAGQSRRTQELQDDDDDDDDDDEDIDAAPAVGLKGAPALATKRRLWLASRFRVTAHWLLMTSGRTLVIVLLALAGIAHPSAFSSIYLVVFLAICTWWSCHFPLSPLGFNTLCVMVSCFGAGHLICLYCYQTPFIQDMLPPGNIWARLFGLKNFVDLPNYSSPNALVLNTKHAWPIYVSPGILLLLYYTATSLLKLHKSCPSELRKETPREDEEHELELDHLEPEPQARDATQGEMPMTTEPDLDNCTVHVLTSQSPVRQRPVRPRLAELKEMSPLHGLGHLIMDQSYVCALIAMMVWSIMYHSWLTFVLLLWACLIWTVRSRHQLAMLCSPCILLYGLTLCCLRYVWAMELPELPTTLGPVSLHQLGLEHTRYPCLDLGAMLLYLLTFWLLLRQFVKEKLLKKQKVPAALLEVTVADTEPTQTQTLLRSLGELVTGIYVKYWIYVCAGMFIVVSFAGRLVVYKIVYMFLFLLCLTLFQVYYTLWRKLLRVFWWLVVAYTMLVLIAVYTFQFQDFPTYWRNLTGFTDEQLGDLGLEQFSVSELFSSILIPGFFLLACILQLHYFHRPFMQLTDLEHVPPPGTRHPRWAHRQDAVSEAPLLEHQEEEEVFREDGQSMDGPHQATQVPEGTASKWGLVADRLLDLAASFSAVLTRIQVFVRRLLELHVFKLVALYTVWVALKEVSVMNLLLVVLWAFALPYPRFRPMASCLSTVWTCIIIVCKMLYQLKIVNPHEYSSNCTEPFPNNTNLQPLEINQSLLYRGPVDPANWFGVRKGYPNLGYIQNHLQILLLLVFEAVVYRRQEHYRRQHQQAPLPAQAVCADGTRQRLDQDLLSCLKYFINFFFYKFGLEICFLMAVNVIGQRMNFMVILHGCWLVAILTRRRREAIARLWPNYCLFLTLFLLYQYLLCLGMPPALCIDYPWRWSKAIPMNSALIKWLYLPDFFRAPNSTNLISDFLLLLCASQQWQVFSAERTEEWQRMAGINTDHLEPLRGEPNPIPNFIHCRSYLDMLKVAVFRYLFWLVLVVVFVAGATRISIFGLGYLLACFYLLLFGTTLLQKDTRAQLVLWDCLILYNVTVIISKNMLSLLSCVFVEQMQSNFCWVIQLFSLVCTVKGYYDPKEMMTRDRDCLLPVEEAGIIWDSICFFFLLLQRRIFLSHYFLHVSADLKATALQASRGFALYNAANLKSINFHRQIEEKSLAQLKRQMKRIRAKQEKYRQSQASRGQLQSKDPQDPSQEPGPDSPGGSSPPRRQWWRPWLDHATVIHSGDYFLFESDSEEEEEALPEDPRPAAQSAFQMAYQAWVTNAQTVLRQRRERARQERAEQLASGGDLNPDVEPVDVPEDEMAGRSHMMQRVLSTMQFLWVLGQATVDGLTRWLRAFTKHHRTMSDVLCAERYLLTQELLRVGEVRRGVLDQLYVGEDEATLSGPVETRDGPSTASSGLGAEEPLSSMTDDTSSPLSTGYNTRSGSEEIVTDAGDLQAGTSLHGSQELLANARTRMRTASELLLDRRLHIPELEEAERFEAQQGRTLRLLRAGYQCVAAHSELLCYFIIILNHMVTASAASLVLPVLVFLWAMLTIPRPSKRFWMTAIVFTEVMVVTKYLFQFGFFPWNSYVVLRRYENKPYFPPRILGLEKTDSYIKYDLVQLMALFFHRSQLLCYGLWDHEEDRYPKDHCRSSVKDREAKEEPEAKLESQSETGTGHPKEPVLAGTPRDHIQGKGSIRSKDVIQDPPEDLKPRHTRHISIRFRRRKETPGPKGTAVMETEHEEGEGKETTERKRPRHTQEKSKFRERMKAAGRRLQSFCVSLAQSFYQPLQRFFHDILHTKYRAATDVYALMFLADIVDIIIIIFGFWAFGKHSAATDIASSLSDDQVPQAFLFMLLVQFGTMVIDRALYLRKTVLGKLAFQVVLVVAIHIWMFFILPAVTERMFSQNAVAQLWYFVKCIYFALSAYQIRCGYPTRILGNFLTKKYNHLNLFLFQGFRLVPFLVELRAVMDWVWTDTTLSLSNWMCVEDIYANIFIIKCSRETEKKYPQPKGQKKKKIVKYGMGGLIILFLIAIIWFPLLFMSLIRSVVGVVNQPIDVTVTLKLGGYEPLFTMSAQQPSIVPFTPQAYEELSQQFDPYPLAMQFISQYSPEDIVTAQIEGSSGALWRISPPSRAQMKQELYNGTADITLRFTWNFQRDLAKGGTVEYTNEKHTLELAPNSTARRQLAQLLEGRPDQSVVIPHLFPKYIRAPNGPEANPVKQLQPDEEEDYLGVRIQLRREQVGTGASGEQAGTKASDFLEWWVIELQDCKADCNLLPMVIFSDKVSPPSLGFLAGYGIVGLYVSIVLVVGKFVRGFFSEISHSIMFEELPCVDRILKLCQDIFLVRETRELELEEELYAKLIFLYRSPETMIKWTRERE
hPIEZO1 (Homo sapiens, UniProt Q92508, L322P), sequence (Q92508 whole entry L322P): as the sequence (Q92508 whole entry) above, with L322P counted along it
mPIEZO1 (Mus musculus, UniProt E2JF22, L329P), sequence (E2JF22 whole entry L329P): as the sequence (E2JF22 whole entry) above, with L329P counted along it

As to `Cc1oc(-c2ccccc2)cc1C(=O)O` [Jedi1], the “Fura-2 ratio change at 1 mM” value at hPIEZO1 [1] was “comparable Fura-2 signal increase in response to the application of either Jedi1 or Yoda1”.
Consider `Clc1cccc(Cl)c1CSc1nnc(-c2cnccn2)s1` [Yoda1], for which the concentration for a half-maximal effect (EC50) on mPIEZO1 [2] turned out to be 4.3 µM; on hPIEZO1 [3], 9.1 µM; at mPIEZO1 [4], 1300 nM; on hPIEZO1 [5], 3.1 µM.
